Assay results from US6410328B1, “Sensitizing cells to compounds using lipid-mediated gene and compound delivery” (Protiva Biotherapeutics Inc., priority 1998, dated 2002).

Experiments:
[1] = system: B16 murine melanoma cells stably transfected with HSV-TK; experiment: Efficacy of liposomal ganciclovir in the B16TK tumor model (Example 11); type: in vivo, mouse; details: day 18; 25 mg/kg ganciclovir every other day from day five, six injections
Experimental: FIG. 13 illustrates efficacy of liposomal ganciclovir in the B16TK tumor model. Female C57BL/6 mice were seeded subcutaneously in the hind flank with 150,000 B16 murine melanoma cells stably transfected with HSV-TK. Five days later, tumor measurement began. Starting on day five, mice were treated with liposomal or free GCV (25 mg/kg ganciclovir) or HBS (Hepes Buffered Saline) every other day for a total of six injections. Measurements at day 18 indicate that tumors in the control mice are 5-fold larger than those of the treated groups. Tumor volume was determined by measuring tumor in three dimensions with calipers.
Groups of 4 or 5 female C57BL/6 mice were injected intradermally with B16 cells stably transfected with HSV-TK. Once tumors were measurable (day 5), the mice were injected intravenously with liposomal GCV (25 mg/kg GCV). Injections were continued every other day for 6 injections. Tumor measurements were typically taken every other day.

[2] = Plasma clearance and in vivo release of free and liposomal GCV in B16 tumored mice (Example 9); parameters: species or system mouse; details: 1 hr after single iv dose, 25 mg/kg GCV
Experimental: Large unilamellar vesicles were prepared according to the method of Hope, et al., Biochem. Biophys. Acta. 812:55-65 (1985). 55 mole % sphingomyelin and 45 mole % of cholesterol were dissolved in chloroform with a drop of methanol and approximately 0.035 μCi of ^14C-CHE. Lipids were dried down under a stream of nitrogen gas and the resulting lipid film was then placed under high vacuum for at least 3 hrs. A solution of ganciclovir containing ^3H-GCV was made up in 30% ethanol, 70% HBS (20 mM Hepes, 145 mM NaCl pH 7.45) to 50 or 100 mg/mL depending on the sample size. The lipid to GCV weight ratio was initially 1 to 1. The GCV solution was added to the lipid film. […] The lipid concentration was determined by scintillation counting of ^14C-CHE label. The GCV concentration was determined by counting ^3H-GCV and a Bligh Dyer assay.
Groups of four female C57BL/6 mice per time point were injected subcutaneously with 150,000 B16 tumor cells. […] Circulating levels of lipid and GCV were determined at 15 min, 1, 8, 24 and 48 hrs for the liposomal GCV groups. Levels of GCV were determined at 15 min and 1 hr for the free GCV groups. […] Lipid and GCV levels in the plasma were determined. Lipid and GCV were measured by counting ^14C-CHE and ^3H-GCV. One hundred or 200 μL aliquots of plasma were measured on a Beckman LS3801 scintillation counter.

[3] = Organ biodistribution of free and liposomal GCV in B16 tumored mice (Example 10); type: in vivo, mouse
Experimental: (§1) Groups of four female C57BL/6 mice per time point were injected subcutaneously with 150,000 B16 tumor cells. The tumors were grown for 14 days at which time a single iv dose of free GCV or liposomal GCV was given via the lateral tail vein. This dose, given in a total of 200 μL, contained approximately 5.6 mg (10 μmoles) lipid and 0.5 mg (1.96 μmoles) GCV resulting in lipid and GCV doses of 300 mg/kg and 25 mg/kg, respectively. Circulating levels of lipid and GCV were determined at 15 min, 1, 8, 24 and 48 hrs for the liposomal GCV groups. Levels of GCV were determined at 15 min and 1 hr for the free GCV groups. At each time point, animals were anesthetized with ketamine/xylazine and blood was collected via cardiac puncture. Blood was put into EDTA coated microtainers and spun at 500 g for 10 min in order to pellet blood cells and obtain plasma. Lipid and GCV levels in the plasma were determined. Lipid and GCV were measured by counting ^14C-CHE and ^3H-GCV. One hundred or 200 μL aliquots of plasma were measured on a Beckman LS3801 scintillation counter.
Biodistribution data was collected from those mice that were in the pharmacokinetic studies. Following heart puncture, mice were terminated by cervical dislocation. Tissues were harvested from each animal and weighed. Saline was added to each organ prior to homogenization by either a Polytron homogenizer (livers) or a Fast Prep® machine. Tissues were solubilized in Solvable for 3 to 16 hr at 50° C. The samples were then cooled to room temperature before defoaming and decolourizing with EDTA and hydrogen peroxide respectively. Picofluorscintillation fluid was added to the samples prior to counting on the scintillation counter.

in vivo = details: female, C57BL/6, mouse, iv, 25 mg/kg
Experimental: as §1, with “counter. […]” for “counter.”
Tumor bearing mice were treated intravenously with 25 mg/kg of free or liposomal GCV. Lipid and GCV were quantified using ^14C-CHE and ^3H-GCV labels. […] Free ganciclovir is rapidly cleared from the tumor, with only 1.1+/−0.1 % of the total injected dose per gram of tumor detected at 1 hr. […]

Structure (SMILES): Nc1nc(O)c2ncn(COC(CO)CO)c2n1 [free GCV, ganciclovir]
- tumor size in control HBS-treated mice relative to treated groups [1]: 5 fold
- injected dose remaining in circulation [2]: 0.4 % of the injected dose
- GCV content of organs assayed (liver, lungs, spleen, kidneys) ([3]; 15 min and 1 hr, except kidneys at 15 min): essentially absent
- GCV found in the kidneys ([3]; 15 minute time point): 3.5+/−1.8 % of the total injected dose
- GCV found in the liver ([3]; 15 minutes after administration): 3.1+/−0.1 % of the initial injected dose
- GCV in the spleen ([3]; 1 hr (peak for liposomal GCV)): 0.04+/−0.02 % of the total injected dose
- tissue uptake at 1 h (in vivo): 1.1 %ID/g
